Test [1] relates to PMA-induced release of endogenous HB-EGF from human THP-1 monocytic cells. Briefly: ELISA-based HB-EGF release assay, PMA-induced, THP-1 cells. The format is cell-based. The conditions noted are these: PMA 25 ng/ml, 6 hours, murine (m) and chimeric (ch) antibodies and IgG at 3 μg/ml, Batimastat at 10 μM. Here is the method: In brief, on day 1, Nunc black MaxiSorp® 96-well plates (Thermo Fisher Scientific, USA) were coated for 7 hours with 100 μl per well of rat anti-human HB-EGF capture antibody (provided as part of the DuoSet ELISA kit) at 2 μg/ml TBS at room temperature. Capture antibody solution was removed and MaxiSorp® plates were blocked with 300 μl per well of TBS, 1% BSA at room temperature for 3 hours. […]
Following another round of 4 times washing with 350 μl TBS-T (Carl Roth, Germany) per well on a 96-head plate washer (Tecan Group, Switzerland) and careful removal of all buffer traces after the fourth cycle, 100 μl AttoPhos substrate solution (Promega, USA) per well was added for incubation in the dark at room temperature for 1 hour. Using an infinite M1000 (Tecan Group, Switzerland) microplate reader, the fluorescence of each well was collected at an excitation wavelength of 435 nm and an emission wavelength of 555 nm.
A general note: ELISA stands for enzyme-linked immunosorbent assay.

The test system of test [2] is PMA-induced release of endogenous IL-6R from PBMCs from patients suffering from rheumatoid arthritis. Briefly: ELISA-based IL-6R release assay, PMA-induced, PBMCs from RA-patients. To be noted: Homo sapiens, PBMC; PMA 25 ng/ml, 24 hours; chimeric antibodies (CHO) and IgG at 1 μg/ml; Batimastat at 10 μM. Format: cell-based. Here is the method: In brief, on day 1, Nunc black MaxiSorp® 96-well plates (Thermo Fisher Scientific, USA) were coated overnight with 100 μl per well of mouse anti-human IL-6R capture antibody (provided as part of the DuoSet ELISA kit) at 4 μg/ml TBS at 4° C. Meanwhile, 40,000 PBMC from patients suffering from rheumatoid arthritis (STEMCELL Technologies, Canada) cells in 80 μl of normal growth medium were seeded in each well of Greiner CELLSTAR V-bottom 96-well plates (Thermo Fisher Scientific, USA) and pre-incubated with 20 μl per well of standard growth medium supplemented with Batimastat (BB94, Abcam, UK) at 50 μM as positive control (for a final concentration of 10 μM in the resulting 100 μl sample volume), mouse IgG antibody (Thermo Fisher Scientific, USA) at 5 μg/ml as isotype control (for a final concentration of 1 μg/ml in the resulting 100 μl sample volume) or antibodies of the invention at 5 μg/ml (for a final concentration of 1 μg/ml in the resulting 100 μl sample volume) at 37° C., 5% CO2 for 30 minutes. In case of stimulation controls, 20 μl of standard growth medium without test articles were added. […] Using an infinite M1000 (Tecan Group, Switzerland) microplate reader, the fluorescence of each well was collected at an excitation wavelength of 435 nm and an emission wavelength of 555 nm.

What is called inhibition is the relative decrease from the control value, in per cent.

Take `CNC(=O)[C@H](Cc1ccccc1)NC(=O)[C@H](CC(C)C)[C@H](CSc1cccs1)C(=O)NO` [Batimastat]: the values for the inhibition at 10 µM in test [1] and in test [2] were 98.9% and 104%, respectively.
